These results are taken from ChEMBL document CHEMBL1201862, “PubChem BioAssay data set” (2004).

Test systems include RPMI-8226; UO-31; TK-10; PC-3; SK-MEL-2; A498; SK-OV-3; MDA-N; K562; HOP-92; OVCAR-8; MOLT-4; 786-0; HT-29; ACHN; SR; NCI-H460; Hs-578T; LOX IMVI; SW-620.
Holding throughout (test): inhibition of tumour cell growth, NCI panel, 48 h

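Where inhibition never reached the appropriate level, the endpoint shown equals the highest concentration tested. Otherwise, values were interpolated linearly from a five-concentration, 48-hour dose response in 96-well plates. At the GI50, growth is halved.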 Calls of active or inactive are those of the source. Rule as the data show it: active = GI50 up to about 1.1 µM and inactive = higher.

With `O=C1c2ccccc2-n2c1nc1cc(Cl)ccc1c2=O`, the GI50 with RPMI-8226 was 5.04 µM (inactive); with UO-31, > 100 µM (inactive); in the experiment with TK-10, > 100 µM (inactive); in the experiment with PC-3, > 100 µM (inactive); in the experiment with SK-MEL-2, 43.9 µM (inactive); in the experiment on A498 it was > 100 µM (inactive). Moreover, the GI50 with SK-OV-3 is > 100 µM (inactive); in the experiment on MDA-N it was 14.5 µM (inactive); in the experiment with K562, 4.05 µM (inactive); in the experiment on HOP-92 it was 71.6 µM (inactive); in the experiment on OVCAR-8 it was 36.8 µM (inactive); with MOLT-4 it was 11.9 µM (inactive). Further, the GI50 is 89.7 µM (inactive) in the experiment with 786-0; 61.9 µM (inactive) with HT-29; > 100 µM (inactive) with ACHN; 6.62 µM (inactive) in the experiment with SR; 30.3 µM (inactive) with NCI-H460; 20.2 µM (inactive) in the experiment on Hs-578T. Also, the GI50 with LOX IMVI was 14 µM (inactive).

As for `COC(=O)c1cc(C)ccc1CC(Cc1ccc(C)cc1)C(=O)OC` (stereo unspecified), the GI50 with RPMI-8226 is 5.77 µM (inactive); with UO-31 it was 17.1 µM (inactive); in the experiment with TK-10, > 100 µM (inactive); with PC-3, 37.8 µM (inactive); in the experiment with SK-MEL-2 it was 25.1 µM (inactive); in the experiment on A498, 72.6 µM (inactive). For the same compound, the GI50 in the experiment on SK-OV-3 was 26.6 µM (inactive); in the experiment with MDA-N, 40.6 µM (inactive); with K562 it was 3.18 µM (inactive); in the experiment with HOP-92 it was 8.95 µM (inactive); in the experiment with OVCAR-8, > 66.8 µM (inactive); in the experiment on MOLT-4, 5.01 µM (inactive). The GI50 with 786-0 is 25.7 µM (inactive); with HT-29, 5.58 µM (inactive); in the experiment on ACHN, > 100 µM (inactive); in the experiment on SW-620, 23.5 µM (inactive); in the experiment with SR, 7.71 µM (inactive); in the experiment with NCI-H460, 40.4 µM (inactive). Also, the figures for the GI50 in the experiment on Hs-578T and in the experiment on LOX IMVI were 21.2 µM (inactive) and 19.1 µM (inactive), respectively.

For the compound `N=C(N)NCCCC(NC(=O)OCCCCCCn1ccc(N)nc1=O)C(=O)O` (stereo unspecified), the GI50 in the experiment with RPMI-8226, in the experiment with UO-31, in the experiment on TK-10, with PC-3, with SK-MEL-2 and in the experiment on A498 was > 100 µM (inactive) in each case. Moreover, the GI50 in the experiment on SK-OV-3, with MDA-N, with K562, with HOP-92, in the experiment with MOLT-4 and in the experiment on 786-0 was > 100 µM (inactive) in each case. The GI50 with HT-29, with ACHN, in the experiment with SW-620, in the experiment on SR, in the experiment on NCI-H460 and in the experiment with Hs-578T was > 100 µM (inactive) each time. For the same compound, the GI50 with LOX IMVI is > 100 µM (inactive).

Turning to `Clc1ccc(NCc2nnc(CCCCCCCCc3nnc(CNc4ccc(Cl)cc4)o3)o2)cc1`, the GI50 in the experiment with RPMI-8226, in the experiment with UO-31, with TK-10, in the experiment with PC-3, with SK-MEL-2 and in the experiment on A498 was > 100 µM (inactive) each time. Moreover, the GI50 in the experiment on SK-OV-3, in the experiment with MDA-N, in the experiment with K562, with HOP-92, in the experiment on OVCAR-8 and in the experiment on MOLT-4 was > 100 µM (inactive) throughout. The GI50 with 786-0, in the experiment on HT-29, in the experiment with ACHN, with SR, with NCI-H460 and in the experiment with Hs-578T was > 100 µM (inactive) throughout. The GI50 in the experiment on LOX IMVI is > 100 µM (inactive).

For `Cc1nc(-c2ccc([N+](=O)[O-])cc2)cn2c1nc1ccccc12`, the GI50 is > 100 µM (inactive) with RPMI-8226; > 100 µM (inactive) in the experiment with UO-31; 97.5 µM (inactive) with TK-10; > 100 µM (inactive) with PC-3; 31.1 µM (inactive) in the experiment with SK-MEL-2; > 100 µM (inactive) in the experiment on A498. The GI50 in the experiment on SK-OV-3 was 18.9 µM (inactive); in the experiment with MDA-N, > 100 µM (inactive); with K562, > 100 µM (inactive); in the experiment on HOP-92, 70.5 µM (inactive); in the experiment on OVCAR-8, > 100 µM (inactive); in the experiment with MOLT-4 it was > 100 µM (inactive). Besides, the GI50 was 71 µM (inactive) in the experiment on 786-0; > 100 µM (inactive) with HT-29; > 100 µM (inactive) with SW-620; > 100 µM (inactive) in the experiment with SR; > 100 µM (inactive) in the experiment with NCI-H460; > 100 µM (inactive) with Hs-578T. In addition, the GI50 in the experiment with LOX IMVI was > 100 µM (inactive).

`CSc1ncc2c(n1)-c1ccccc1OC2N1CCCC1` (stereo unspecified): the GI50 was 50.9 µM (inactive) in the experiment with RPMI-8226; 42.4 µM (inactive) with UO-31; 44.1 µM (inactive) in the experiment on TK-10; 57.3 µM (inactive) in the experiment on PC-3; > 100 µM (inactive) in the experiment on SK-MEL-2; 11.8 µM (inactive) with A498. Besides, the GI50 is > 100 µM (inactive) with SK-OV-3; > 100 µM (inactive) in the experiment with MDA-N; 60.1 µM (inactive) in the experiment on K562; > 100 µM (inactive) in the experiment on HOP-92; > 100 µM (inactive) with OVCAR-8; 79.8 µM (inactive) in the experiment on MOLT-4. Further, the GI50 is > 100 µM (inactive) in the experiment on 786-0; > 100 µM (inactive) in the experiment on HT-29; 60.8 µM (inactive) in the experiment on ACHN; 94.8 µM (inactive) in the experiment with SW-620; > 100 µM (inactive) in the experiment with SR; > 100 µM (inactive) in the experiment on NCI-H460. Moreover, the GI50 with Hs-578T was 39.1 µM (inactive); in the experiment with LOX IMVI, > 100 µM (inactive).

For `Brc1ccccc1/C=C\C1(c2ccccc2)OCCO1`, the GI50 with RPMI-8226 was 1.01 µM (active); with UO-31, 7.83 µM (inactive); in the experiment with TK-10, 16.6 µM (inactive); with PC-3, 17.9 µM (inactive); in the experiment with SK-MEL-2, 23 µM (inactive); in the experiment on A498 it was 12.9 µM (inactive). The GI50 is 13.6 µM (inactive) in the experiment with SK-OV-3; 12.3 µM (inactive) in the experiment with MDA-N; 1.01 µM (active) in the experiment with K562; 23.3 µM (inactive) with HOP-92; 9.23 µM (inactive) in the experiment on OVCAR-8; 0.238 µM (active) in the experiment on MOLT-4. The GI50 in the experiment on 786-0 is 11.6 µM (inactive); in the experiment with HT-29 it was 7.01 µM (inactive); with ACHN, 8.51 µM (inactive); in the experiment on SW-620 it was 5.47 µM (inactive); with SR, 0.692 µM (active); with NCI-H460, 14.1 µM (inactive). Besides, the values for the GI50 with Hs-578T and in the experiment with LOX IMVI were 7.6 µM (inactive) and 3.34 µM (inactive), respectively.

Consider `Oc1cc(-c2ccccc2)nc2cc3c(cc12)OCO3`, for which the GI50 in the experiment on RPMI-8226 was 11 µM (inactive); with UO-31, 13.1 µM (inactive); with TK-10, 39 µM (inactive); in the experiment with PC-3, 30.2 µM (inactive); in the experiment with SK-MEL-2, 19.5 µM (inactive); in the experiment with A498, 15.1 µM (inactive). For the same compound, the GI50 in the experiment with SK-OV-3 is 6.92 µM (inactive); in the experiment on MDA-N, 4.11 µM (inactive); in the experiment with K562, 4.06 µM (inactive); in the experiment on HOP-92 it was 3.98 µM (inactive); in the experiment with OVCAR-8 it was 14.5 µM (inactive); with MOLT-4 it was 15.1 µM (inactive). The GI50 in the experiment with 786-0 was 9.95 µM (inactive); in the experiment on HT-29 it was 7.18 µM (inactive); in the experiment with ACHN, 15.2 µM (inactive); in the experiment on SW-620 it was 6.15 µM (inactive); in the experiment on SR, 3.36 µM (inactive); with NCI-H460 it was 7.87 µM (inactive). Also, the values for the GI50 in the experiment on Hs-578T and in the experiment with LOX IMVI were 24.5 µM (inactive) and 11.6 µM (inactive), respectively.

As to `Cc1ccccc1C(=N)c1ccccc1Cc1cccc2ccccc12`, the GI50 in the experiment on RPMI-8226 is 7.43 µM (inactive); with UO-31, 38.5 µM (inactive); in the experiment on TK-10, 59.3 µM (inactive); with PC-3 it was 40.6 µM (inactive); in the experiment on SK-MEL-2, 16.9 µM (inactive); in the experiment with A498, 30.8 µM (inactive). Besides, the GI50 is 26.3 µM (inactive) in the experiment with SK-OV-3; 22.2 µM (inactive) in the experiment on MDA-N; 18.2 µM (inactive) in the experiment with K562; 17.1 µM (inactive) in the experiment with HOP-92; 32 µM (inactive) in the experiment on OVCAR-8; 14 µM (inactive) in the experiment on MOLT-4. Further, the GI50 with 786-0 is 19.4 µM (inactive); in the experiment on HT-29 it was 16.1 µM (inactive); with ACHN it was 30.4 µM (inactive); in the experiment on SW-620 it was 21.2 µM (inactive); in the experiment on SR it was 15.9 µM (inactive); in the experiment with NCI-H460, 15.5 µM (inactive). Besides, the GI50 in the experiment on Hs-578T is 4.63 µM (inactive); in the experiment on LOX IMVI, 18.1 µM (inactive).

Turning to `Nc1ccc(-c2nc3ccc(F)cc3s2)cc1I`, the GI50 in the experiment on RPMI-8226 is > 100 µM (inactive); in the experiment with UO-31, > 100 µM (inactive); with TK-10 it was < 0.01 µM (active); with PC-3, > 100 µM (inactive); in the experiment on SK-MEL-2, > 100 µM (inactive); in the experiment on A498 it was > 100 µM (inactive). The GI50 was 97.3 µM (inactive) with SK-OV-3; > 100 µM (inactive) in the experiment with MDA-N; > 100 µM (inactive) in the experiment with K562; 24.8 µM (inactive) with HOP-92; > 79.4 µM (inactive) with OVCAR-8; 12.4 µM (inactive) with MOLT-4. Moreover, the GI50 in the experiment on 786-0 is 40.4 µM (inactive); in the experiment on HT-29, 56.1 µM (inactive); in the experiment on ACHN, > 100 µM (inactive); in the experiment on SW-620 it was > 100 µM (inactive); with SR it was > 76.2 µM (inactive); in the experiment with NCI-H460, > 100 µM (inactive). Also, the GI50 with Hs-578T was 22.2 µM (inactive); in the experiment on LOX IMVI, > 100 µM (inactive).
